Patent US11278514B2, “Composition compromising dunnione as effective ingredient for prevention or alleviation of hair loss” (NADIANBIO LTD., priority 2018, dated 2022)

How the values were obtained:
Sirt1 protein = test: Expression level of Sirt1 protein in skin tissue (western blot), cyclophosphamide alopecia model; format: in vivo, mice; settings: cyclophosphamide alone; day 18
Protocol: (§1) In the cyclophosphamide-induced alopecia mouse model of Example 2, expression level of Sirt1 protein and acetylation reaction of the target proteins thereof, NF-κB p65 and p53, were identified on the skin tissue obtained on day 18 after hair removal.
(§2) Specifically, 10 mg of the skin tissue obtained from the animal model prepared by the method in Example 2 was homogenized by addition of a lysis solution (RIPA lysis buffer). Then, centrifugation was performed at 14,000 rpm for 10 minutes. The protein concentration in the supernatant was quantified with a bovine serum albumin (BSA) standard solution. The skin tissue protein was used in an amount of 40 μg per test solution. First, the homogenized skin tissue was mixed with a sample solution (Bio-Rad, 161-0747) and inactivated at a temperature of 95° C. for 5 minutes. Thereafter, the protein was separated by a sodium dodecyl sulfate-polyacrylamide gel electrophoresis (SDS-PAGE) method, and then transferred to a nitrocellulose membrane. Treatment with anti-Sirt1 antibody (Abcam), anti-acetyl NF-κB p65 antibody and anti-acetyl p53 antibody (Cell Signaling Technologies), and anti-β-actin antibody (Santa Cruz Biotechnology) as primary antibodies were performed, and reaction was allowed to proceed. […]

NQO1 knockout mice [1] = settings: cyclophosphamide alone, day 18
Protocol: (§3) The day, on which the NQO1 knockout mice were hair-removed according to Example 1, was set as day 0, and the animals were divided into the following experimental groups and used for experiments: normal group (Control, 4 animals) in which only PBS is intraperitoneally injected on day 9; cyclophosphamide group (CYP, 6 animals) in which cyclophosphamide (150 mg/kg) is intraperitoneally injected on day 9; combination-treated group (CYP+Dunnione, 6 animals) in which dunnione is orally administered on a daily basis starting from 3 days prior to treatment with cyclophosphamide; and dunnione alone-treated group (Dunnione, 4 animals) in which only dunnione (20 mg/kg) is administered (FIG. 1).
(§4) The day, on which the NQO1 knockout mice were hair-removed according to Example 1, was set as day 0, and the mice in each of the experimental groups described in Example 3 were sacrificed on day 18. Subsequently, the mouse dorsal skin was dissected parallel or perpendicular to the vertebral line, and removed. The removed skin was fixed with a Bouin's solution for 12 hours, subjected to dehydration, and embedded in paraffin. Then, the resulting product was prepared into 5-μm sections. The prepared sections were subjected to hematoxylin and eosin (H&E) staining, and histological changes in the skin in each experimental group were observed.

patients = settings: cancer patients; Batchelor D., Eur J Cancer Care, 2001; cited from earlier work
NF-κB p65 = test: Acetylation of NF-κB p65 in skin tissue (western blot), cyclophosphamide alopecia model; format: in vivo, mice; settings: cyclophosphamide alone; day 18
Protocol: as §1, §2

Sirt1 = Sirt1 activity in skin tissue (fluorescent Sirt1 detection kit), cyclophosphamide alopecia model; format: in vivo, mice; settings: cyclophosphamide alone; day 18
Protocol: In addition, the skin tissue obtained from the animal model prepared by the method in Example 2 was homogenized. The homogenized skin tissue was tested with the fluorescent Sirt1 detection kit (BML-AK555-0001) of Enzo Life Sciences International, Inc. according to the instruction manual, and then Sirt1 activity was analyzed. 40 μg of the homogenized skin tissue was mixed with a reaction solution (Fluor de Lys-Sirt1, NAD+, buffer solution (25 mM Tris-HCl (pH8.0), 137 mM NaCl, 2.7 mM […], 1 mM MgCl2, and 1 mg/mL BSA)), and reaction was allowed to proceed at a temperature of 37° C. for 1 hour. Then, additional reaction was allowed to proceed for 5 minutes under a condition in which a developer is added. In order to check the final Sirt1 activity, readings were measured for the reaction solution using the CytoFluor series 4000 fluorometer (PerSeptive Biosystems, Inc., USA) with the excitation wavelength set to 360 nm and the emission to 460 nm.

p53 = test: Acetylation of p53 in skin tissue (western blot), cyclophosphamide alopecia model; format: in vivo, mice; settings: cyclophosphamide alone; day 18
Protocol: as §1, §2

NAD^+ = test: NAD+ and NADH concentrations and NAD+/NADH ratio in skin tissue, cyclophosphamide alopecia model; format: in vivo, mice; settings: cyclophosphamide alone vs normal group; day 18
Protocol: Specifically, in order to quantify the NAD^+ and NADH concentrations in the skin tissue obtained from the animal model prepared by the method in Example 2, the skin tissue was tested with the analysis kit (E2ND-100) of BioAssay Systems according to the instruction manual, and then the NAD^+/NADH ratio was analyzed. First, 10 mg of skin tissue was collected from the animal model. Then, 100 μl of extraction solution for NAD^+ or NADH was added to the skin tissue and homogenized. Then, the homogenized skin tissue was subjected to heat treatment at 60° C. for 5 minutes. Neutralization was performed by addition of the same volume of the extraction solution, and then centrifugation was performed at 14,000 rpm for 5 minutes to obtain the supernatant. Then, a developing reagent was added to the supernatant. The NAD^+ and NADH concentrations were determined from the absorbance measured at a wavelength of 565 nm, and the NAD^+/NADH ratio was analyzed.

NQO1 knockout mice [2] = settings: cyclophosphamide alone (150 mg/kg i.p.), until day 18
Protocol: as §3

[3] = system: C57BL/6 mice having alopecia caused by cyclophosphamide; settings: cyclophosphamide alone (150 mg/kg i.p.); day 18
Protocol: as §3, with “the” for “the NQO1 knockout”, “in” for “according to”, “groups:” for “experimental groups and used for experiments:”
as §4, with “the” for “the NQO1 knockout”, “in” for “according to”, “2” for “3”

O=P1(N(CCCl)CCCl)NCCCO1 (stereo not shown) [cyclophosphamide, reference compound]
expression level of Sirt1 protein in skin tissue (Sirt1 protein): decreased
development of hair follicles and inner root sheaths (histology) (NQO1 knockout mice [1]): the hair follicles have poorly developed or the inner root sheaths have insufficiently developed
patients in whom the agent causes CIA (patients): ≥ 60%
acetylation of NF-κB p65 in skin tissue (NF-κB p65): increased
Sirt1 activity in skin tissue (Sirt1): decreased
acetylation of p53 in skin tissue (p53): increased
NAD^+ concentration in skin tissue (NAD^+): decreased
NAD^+/NADH ratio in skin tissue (NAD^+): decreased
hair growth, visual observation of skin (NQO1 knockout mice [2]): hair hardly grew until day 18 after hair removal
development of hair follicles and inner root sheaths (histology) [3]: the hair follicles have poorly developed or the inner root sheaths have insufficiently developed
